Results on 1 compound are retold here after patent publication US20240024307A1, “PHARMACEUTICAL COMBINATION OF A CORTICOSTEROID AND AN ANTIHISTAMINE FOR THE TREATMENT AND CONTROL OF THE INFLAMMATORY COMPONENT OF ALLERGIC PROCESSES” (priority 2020, published 2024).

For data set [1] the following is noted: 40° C. and 75% RH; alone or in combination with various excipients; cited from earlier work.
Data set [2] can be described thus: Comparative bioavailability study, 5 mg desloratadine and 0.25 mg betamethasone alone or in combination, single dose, healthy subjects, fasting. As to conditions: analyte desloratadine, 5 mg single dose. The source says:
The study design was crossover, 3×6×3 open, prospective, and longitudinal, truncated to single dose.
Three treatments, three periods, six sequences with an elimination period of 14 days and with a total of 24 healthy subjects of both genders, in fasting conditions.

For `Clc1ccc2c(c1)CCc1cccnc1C2=C1CCNCC1` [Desloratadine, desloratadine], in data set [1], the colour stability entry is on record as “exhibits color changes”. In addition, the “Elimination constant Ke” value in data set [2] amounted to 0.0408 ± 0.009 h⁻¹.
